Results on 27 molecules are retold here after ChEMBL document CHEMBL1921674, “Novel tricyclic inhibitors of IKK2: discovery and SAR leading to the identification of 2-methoxy-N-((6-(1-methyl-4-(methylamino)-1,6-dihydroimidazo[4,5-d]pyrrolo[2,3-b]pyridin-7-yl)pyridin-2-yl)methyl)acetamide (BMS-066)” (Bioorg Med Chem Lett, 2011).

The structures appear in SMILES notation. Where only a bound is given, the exact number is not on record here.

Data set [1] has as its target T1, Inhibitor of nuclear factor kappa-B kinase subunit beta (Homo sapiens, UniProt O14920).
T1 sequence (O14920 whole entry): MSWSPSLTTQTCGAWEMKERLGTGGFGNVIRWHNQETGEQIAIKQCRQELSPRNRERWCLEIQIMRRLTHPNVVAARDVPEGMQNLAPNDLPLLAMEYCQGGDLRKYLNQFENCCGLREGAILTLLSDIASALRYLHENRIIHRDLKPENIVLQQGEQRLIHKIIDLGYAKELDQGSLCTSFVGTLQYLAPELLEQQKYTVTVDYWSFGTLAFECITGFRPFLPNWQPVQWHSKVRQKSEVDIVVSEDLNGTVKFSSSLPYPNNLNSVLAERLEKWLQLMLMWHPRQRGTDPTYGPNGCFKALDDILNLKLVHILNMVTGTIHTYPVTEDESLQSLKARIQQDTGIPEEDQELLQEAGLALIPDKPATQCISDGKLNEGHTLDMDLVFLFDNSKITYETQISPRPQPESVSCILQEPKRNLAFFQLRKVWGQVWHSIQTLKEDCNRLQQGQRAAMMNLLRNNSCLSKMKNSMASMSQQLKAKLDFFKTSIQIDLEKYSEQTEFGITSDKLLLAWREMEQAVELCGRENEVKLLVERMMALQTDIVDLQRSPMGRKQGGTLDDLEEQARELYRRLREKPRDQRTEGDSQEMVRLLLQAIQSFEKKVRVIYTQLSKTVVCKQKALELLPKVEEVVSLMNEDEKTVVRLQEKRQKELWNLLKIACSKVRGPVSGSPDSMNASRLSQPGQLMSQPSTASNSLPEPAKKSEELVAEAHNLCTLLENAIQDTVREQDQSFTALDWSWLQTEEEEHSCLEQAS
Briefly: Inhibition of human IKK2-mediated GST-IkappaBalpha protein fusion phosphorylation.

The next data set has as its system PBMC. Briefly: Antiinflammatory activity in human PBMC assessed as inhibition of LPS-induced TNFalpha release treated for 5 mins before LPS challenge measured after 4 hrs by ELISA. The format is functional, cell-based. In general terms: ELISA stands for enzyme-linked immunosorbent assay.
Another data set has as its system Blood. Briefly: Antiinflammatory activity in human whole blood assessed as inhibition of LPS-induced TNFalpha release treated for 45 mins before LPS challenge measured after 6 hrs by ELISA. It is filed as functional, tissue-based.
Data set [2] is described as follows: Cmax in Lewis rat at 30 mg/kg, po. It is filed as ADME, organism-based. More on the design: dose 30 mg/kg, route oral. To be noted: in vivo.
Data set [3] can be described thus: AUC in Lewis rat at 30 mg/kg, po. The format is ADME, organism-based. Details: dose 30 mg/kg, route oral. To be noted: plasma.

For `CNc1nc2[nH]c(-c3cccc(CNC(=O)c4csnn4)n3)cc2c2c1ncn2C`, the IC50 worked out at 28 nM in data set [1]; 230 nM with PBMC (Homo sapiens, PBMC); 5200 nM in the data set on Blood (Homo sapiens, Blood).

On to `CNc1nc2[nH]c(-c3cccc(CNC(=O)CCOC)c3)cc2c2c1ncn2C`, for which the Cmax in data set [2] was found to be 7.8 µM. The AUC in data set [3] is 39 µM·h. The IC50 in data set [1] came to 13 nM; with Blood (Homo sapiens, Blood), 7000 nM.

On to `CNC(=O)N(C)Cc1cccc(-c2cc3c(nc(NC)c4ncn(C)c43)[nH]2)n1`, for which the IC50 stood at 5.7 nM in data set [1]; 350 nM with PBMC (Homo sapiens, PBMC); 1700 nM in the data set with Blood (Homo sapiens, Blood).

As for `CNc1nc2[nH]c(-c3cccc(CNC(=O)C(C)(C)C)n3)cc2c2c1ncn2C`, the IC50 stood at 66 nM in data set [1]; 310 nM in the data set on PBMC (Homo sapiens, PBMC); 5500 nM in the data set on Blood (Homo sapiens, Blood).

On to `CNc1nc2[nH]c(-c3cccc(CNC(=O)CC(C)C)n3)cc2c2c1ncn2C`, for which the IC50 in data set [1] was 26 nM; in the data set with PBMC (Homo sapiens, PBMC) it was 390 nM; in the data set with Blood (Homo sapiens, Blood), 15000 nM.

For the molecule `CNc1nc2[nH]c(-c3cccc(CNC(=O)CCOC)n3)cc2c2c1ncn2C`, the concentration for half-maximal inhibition (IC50) in data set [1] is 12 nM; in the data set on PBMC (Homo sapiens, PBMC) it was 280 nM; in the data set on Blood (Homo sapiens, Blood), 3300 nM.

`CCNc1nc2sc(-c3cccc([C@H](C)NC(C)=O)c3)nc2c2c1ncn2C`: the IC50 in the data set on Blood (Homo sapiens, Blood) was determined as 3500 nM.

On to `CNc1nc2[nH]c(-c3cccc(N(C)CCOC)n3)cc2c2c1ncn2C`, for which the IC50 in data set [1] was 438 nM; in the data set with PBMC (Homo sapiens, PBMC), 1900 nM; in the data set on Blood (Homo sapiens, Blood), over 25000 nM.

Consider `CNc1nc2[nH]c(-c3cccc(CNC(=O)c4cnccn4)n3)cc2c2c1ncn2C`, for which the IC50 in data set [1] is 23 nM; with PBMC (Homo sapiens, PBMC), 290 nM; in the data set with Blood (Homo sapiens, Blood) it was 5900 nM.

In the case of `CNc1nc2[nH]c(-c3cccc(N4CCN(C)CC4)n3)cc2c2c1ncn2C`, the IC50 in data set [1] was 128 nM; in the data set on PBMC (Homo sapiens, PBMC), 1500 nM; in the data set with Blood (Homo sapiens, Blood) it was over 25000 nM.

As for `CNCC(=O)NCc1cccc(-c2cc3c(nc(NC)c4ncn(C)c43)[nH]2)n1`, the IC50 was 86 nM in data set [1]; 130 nM in the data set with PBMC (Homo sapiens, PBMC); 17000 nM in the data set with Blood (Homo sapiens, Blood).

`CNc1nc2[nH]c(-c3cccc(CNC(=O)CO)n3)cc2c2c1ncn2C`: the IC50 in data set [1] amounted to 13 nM; in the data set with PBMC (Homo sapiens, PBMC), 530 nM; with Blood (Homo sapiens, Blood), 1800 nM.

`CNc1nc2[nH]c(-c3cccc(CN(C)C(=O)COC)n3)cc2c2c1ncn2C`: the IC50 in data set [1] amounted to 19 nM; in the data set on PBMC (Homo sapiens, PBMC) it was 350 nM; with Blood (Homo sapiens, Blood) it was 3300 nM.

Take `CNc1nc2[nH]c(-c3cccc(NCCOC)n3)cc2c2c1ncn2C`: the IC50 in data set [1] is 20 nM; in the data set on PBMC (Homo sapiens, PBMC) it was 350 nM; in the data set with Blood (Homo sapiens, Blood) it was 6400 nM.

Regarding `CNc1nc2[nH]c(-c3cccc(C(C)NC(C)=O)n3)cc2c2c1ncn2C` (single isomer, unassigned; enantiomer 2), the figures for the IC50 (in data set [1]; in the data set with PBMC (pbmc); with Blood) were 9 nM, 300 nM and 1600 nM, respectively.

For `CNc1nc2[nH]c(-c3cccc(CNC(=O)CCN(C)C)n3)cc2c2c1ncn2C`, the IC50 in data set [1] is 5 nM; with PBMC (Homo sapiens, PBMC), 220 nM; with Blood (Homo sapiens, Blood), 1800 nM.

Take `CNc1nc2[nH]c(-c3cccc(C4(NC(C)=O)CC4)n3)cc2c2c1ncn2C`: the IC50 stood at 81 nM in data set [1]; 400 nM in the data set with PBMC (Homo sapiens, PBMC); 7000 nM in the data set with Blood (Homo sapiens, Blood).

Turning to `CNc1nc2[nH]c(-c3cccc(CNC(=O)C4CC4)n3)cc2c2c1ncn2C`, the IC50 in data set [1] was found to be 33 nM; in the data set on PBMC (Homo sapiens, PBMC), 280 nM; in the data set with Blood (Homo sapiens, Blood) it was 5900 nM.

Turning to `CNc1nc2[nH]c(-c3cccc(CN(C)C(C)=O)n3)cc2c2c1ncn2C`, the IC50 is 14 nM in data set [1]; 230 nM with PBMC (Homo sapiens, PBMC); 3000 nM in the data set with Blood (Homo sapiens, Blood).

For `CNc1nc2[nH]c(-c3cccc(C(C)NC(C)=O)n3)cc2c2c1ncn2C` (single isomer, unassigned), the IC50 in data set [1] is 16 nM; with PBMC (pbmc) it was 680 nM; in the data set with Blood (Homo sapiens, Blood), 1700 nM.

Regarding `CNc1nc2[nH]c(-c3cccc(CNC(=O)C4(C)CC4)n3)cc2c2c1ncn2C`, the IC50 worked out at 41 nM in data set [1] and 570 nM in the data set on PBMC (Homo sapiens, PBMC).

On to `CNc1nc2[nH]c(-c3cc(CNC(C)=O)ccn3)cc2c2c1ncn2C`, for which the midpoint of inhibition in data set [1], the IC50, lay at 330 nM.

Molecule `CNc1nc2[nH]c(-c3cccc(CNC(C)=O)c3)cc2c2c1ncn2C` registered an IC50 in data set [1] of 14 nM.

Take `CNc1nc2[nH]c(-c3cccc(CNC(=O)C(C)(C)O)n3)cc2c2c1ncn2C`: the IC50 in data set [1] is 12 nM; in the data set with PBMC (Homo sapiens, PBMC), 240 nM; in the data set on Blood (Homo sapiens, Blood), 3400 nM.

Consider `CCC(=O)NCc1cccc(-c2cc3c(nc(NC)c4ncn(C)c43)[nH]2)n1`, for which the concentration for half-maximal inhibition (IC50) in data set [1] stood at 44 nM; in the data set on PBMC (Homo sapiens, PBMC), 700 nM; with Blood (Homo sapiens, Blood) it was 6100 nM.

Regarding `CNc1nc2[nH]c(-c3cccc(NC(C)=O)n3)cc2c2c1ncn2C`, the IC50 in data set [1] turned out to be 130 nM; in the data set on PBMC (Homo sapiens, PBMC), 1900 nM.

As to `CNc1nc2[nH]c(-c3cccc(CNC(C)=O)n3)cc2c2c1ncn2C`, the IC50 worked out at 19 nM in data set [1]; 160 nM in the data set with PBMC (Homo sapiens, PBMC); 1600 nM with Blood (Homo sapiens, Blood).

In general, IC50 refers to the point on the concentration scale where inhibition reaches its midpoint. As usually defined, the Cmax is the maximum level reached in the sampled fluid or tissue. The term AUC denotes concentration integrated over time. Read a low AUC as less exposure.
